Measured values as given in ChEMBL document CHEMBL3046502, “In vitro antimicrobial and antitubercular studies of novel 6-substituted (pyrrolidin-1-yl)-2(1H)-pyridinones” (2012).
In brackets after ≈: the same amount, converted by molar mass.

Assays:
Format in all cases: functional
Pseudomonas aeruginosa = assay: Antimicrobial activity against Pseudomonas aeruginosa MTCC 2488 by broth microdilution method
Escherichia coli = assay: Antimicrobial activity against Escherichia coli MTCC 442 by broth microdilution method
Aspergillus niger = assay: Antimicrobial activity against Aspergillus niger MTCC 282
Candida albicans = assay: Antimicrobial activity against Candida albicans MTCC 227
Streptococcus pyogenes = assay: Antimicrobial activity against Streptococcus pyogenes MTCC 443 by broth microdilution method
Staphylococcus aureus = assay: Antimicrobial activity against Staphylococcus aureus MTCC 96 by broth microdilution method
Aspergillus clavatus = assay: Antimicrobial activity against Aspergillus clavatus MTCC 1323

SMILES | MIC (Pseudomonas aeruginosa) [µg/mL] | MIC (Escherichia coli) [µg/mL] | MIC (Aspergillus niger) [µg/mL] | MIC (Candida albicans) [µg/mL] | MIC (Streptococcus pyogenes) [µg/mL] | MIC (Staphylococcus aureus) [µg/mL] | MIC (Aspergillus clavatus) [µg/mL]
COc1ccc(-c2cc(=O)n(-c3cccc(Cl)c3)c(N3CCCC3)c2/N=N/c2ccccc2)cc1 | 500 (≈ 1030 µM) | 250 (≈ 515 µM) | 250 (≈ 515 µM) | 500 (≈ 1030 µM) | 250 (≈ 515 µM) | 250 (≈ 515 µM) | 500 (≈ 1030 µM)
COc1ccc(-c2cc(N3CCCC3)n(-c3cccc(Cl)c3)c(=O)c2/N=N/c2cccc(Cl)c2)cc1 | 500 (≈ 963 µM) | 500 (≈ 963 µM) | 500 (≈ 963 µM) | 250 (≈ 481 µM) | 100 (≈ 193 µM) | 100 (≈ 193 µM) | 500 (≈ 963 µM)
COc1ccc(-c2cc(N3CCCC3)n(-c3cccc(Cl)c3)c(=O)c2/N=N/c2ccc(C)cc2)cc1 | 200 (≈ 401 µM) | 200 (≈ 401 µM) | 250 (≈ 501 µM) | 250 (≈ 501 µM) | 200 (≈ 401 µM) | 200 (≈ 401 µM) | 250 (≈ 501 µM)
COc1ccc(-c2cc(=O)n(-c3cccc(Cl)c3)c(N3CCCC3)c2/N=N/c2ccccc2C)cc1 | 500 (≈ 1000 µM) | 200 (≈ 401 µM) | 1000 (≈ 2000 µM) | 250 (≈ 501 µM) | 500 (≈ 1000 µM) | 500 (≈ 1000 µM) | 1000 (≈ 2000 µM)
COc1ccc(-c2cc(N3CCCC3)n(-c3cccc(Cl)c3)c(=O)c2/N=N/c2ccc(Cl)cc2)cc1 | 500 (≈ 963 µM) | 500 (≈ 963 µM) | 1000 (≈ 1930 µM) | 1000 (≈ 1930 µM) | 500 (≈ 963 µM) | 500 (≈ 963 µM) | 1000 (≈ 1930 µM)
COc1ccc(-c2cc(N3CCCC3)n(-c3cccc(Cl)c3)c(=O)c2/N=N/c2cccc([N+](=O)[O-])c2)cc1 | 200 (≈ 377 µM) | 200 (≈ 377 µM) | 500 (≈ 943 µM) | 500 (≈ 943 µM) | 250 (≈ 472 µM) | 250 (≈ 472 µM) | 500 (≈ 943 µM)
COc1ccc(-c2cc(=O)n(-c3cccc(Cl)c3)c(N3CCCC3)c2/N=N/c2cccc(Cl)c2)cc1 | 500 (≈ 963 µM) | 500 (≈ 963 µM) | 500 (≈ 963 µM) | 250 (≈ 481 µM) | 100 (≈ 193 µM) | 100 (≈ 193 µM) | 500 (≈ 963 µM)
COc1ccc(-c2cc(=O)n(-c3cccc(Cl)c3)c(N3CCCC3)c2/N=N/c2ccccc2Cl)cc1 | 100 (≈ 193 µM) | 250 (≈ 481 µM) | 500 (≈ 963 µM) | 250 (≈ 481 µM) | 250 (≈ 481 µM) | 250 (≈ 481 µM) | 250 (≈ 481 µM)
COc1ccc(-c2cc(N3CCCC3)n(-c3cccc(Cl)c3)c(=O)c2/N=N/c2cc(Cl)ccc2Cl)cc1 | 500 (≈ 903 µM) | 250 (≈ 451 µM) | > 1000 | 1000 (≈ 1810 µM) | 500 (≈ 903 µM) | 500 (≈ 903 µM) | > 1000
COc1ccc(-c2cc(=O)n(-c3cccc(Cl)c3)c(N3CCCC3)c2/N=N/c2ccc([N+](=O)[O-])cc2)cc1 | 250 (≈ 472 µM) | 250 (≈ 472 µM) | > 1000 | 500 (≈ 943 µM) | 250 (≈ 472 µM) | 500 (≈ 943 µM) | 500 (≈ 943 µM)
COc1ccc(-c2cc(N3CCCC3)n(-c3cccc(Cl)c3)c(=O)c2/N=N/c2ccccc2C)cc1 | 500 (≈ 1000 µM) | 200 (≈ 401 µM) | 1000 (≈ 2000 µM) | 1000 (≈ 2000 µM) | 500 (≈ 1000 µM) | 500 (≈ 1000 µM) | 1000 (≈ 2000 µM)
COc1ccc(-c2cc(=O)n(-c3cccc(Cl)c3)c(N3CCCC3)c2/N=N/c2cccc([N+](=O)[O-])c2)cc1 | 200 (≈ 377 µM) | 250 (≈ 472 µM) | 500 (≈ 943 µM) | 500 (≈ 943 µM) | 250 (≈ 472 µM) | 250 (≈ 472 µM) | 500 (≈ 943 µM)
COc1ccc(-c2cc(N3CCCC3)n(-c3cccc(Cl)c3)c(=O)c2/N=N/c2ccc([N+](=O)[O-])cc2)cc1 | 250 (≈ 472 µM) | 250 (≈ 472 µM) | > 1000 | 250 (≈ 472 µM) | 250 (≈ 472 µM) | 250 (≈ 472 µM) | > 1000
COc1ccc(-c2cc(=O)n(-c3cccc(Cl)c3)c(N3CCCC3)c2/N=N/c2ccc([N+](=O)[O-])cc2Cl)cc1 | 250 (≈ 443 µM) | 250 (≈ 443 µM) | 500 (≈ 886 µM) | 500 (≈ 886 µM) | 200 (≈ 354 µM) | 200 (≈ 354 µM) | 500 (≈ 886 µM)
COc1ccc(-c2cc(N3CCCC3)n(-c3cccc(Cl)c3)c(=O)c2CN2CCCC2)cc1 | 500 (≈ 1080 µM) | 250 (≈ 539 µM) | 500 (≈ 1080 µM) | 500 (≈ 1080 µM) | 500 (≈ 1080 µM) | 500 (≈ 1080 µM) | 1000 (≈ 2160 µM)
COc1ccc(-c2cc(=O)n(-c3cccc(Cl)c3)c(N3CCCC3)c2/N=N/c2ccc(Cl)c(Cl)c2)cc1 | 200 (≈ 361 µM) | 62.5 (≈ 113 µM) | 500 (≈ 903 µM) | 100 (≈ 181 µM) | 500 (≈ 903 µM) | 200 (≈ 361 µM) | 1000 (≈ 1810 µM)
COc1ccc(-c2cc(=O)n(-c3cccc(Cl)c3)c(N3CCCC3)c2/N=N/c2ccc(C)cc2)cc1 | 250 (≈ 501 µM) | 200 (≈ 401 µM) | 250 (≈ 501 µM) | 250 (≈ 501 µM) | 200 (≈ 401 µM) | 200 (≈ 401 µM) | 500 (≈ 1000 µM)
COc1ccc(-c2cc(N3CCCC3)n(-c3cccc(Cl)c3)c(=O)c2/N=N/c2ccccc2Cl)cc1 | 100 (≈ 193 µM) | 100 (≈ 193 µM) | 250 (≈ 481 µM) | 500 (≈ 963 µM) | 250 (≈ 481 µM) | 250 (≈ 481 µM) | 250 (≈ 481 µM)
COc1ccc(-c2cc(N3CCCC3)n(-c3cccc(Cl)c3)c(=O)c2/N=N/c2ccccc2)cc1 | 100 (≈ 206 µM) | 62.5 (≈ 129 µM) | 500 (≈ 1030 µM) | 200 (≈ 412 µM) | 250 (≈ 515 µM) | 200 (≈ 412 µM) | 500 (≈ 1030 µM)
COC1=CC(=O)C[C@@H](C)[C@]12Oc1c(Cl)c(OC)cc(OC)c1C2=O [GRISEOFULVIN] |  |  | 100 (≈ 283 µM) | 500 (≈ 1420 µM) |  |  | 100 (≈ 283 µM)
COc1ccc(-c2cc(=O)n(-c3cccc(Cl)c3)c(N3CCCC3)c2/N=N/c2c(Cl)cc([N+](=O)[O-])c(Cl)c2Cl)cc1 | 250 (≈ 395 µM) | 250 (≈ 395 µM) | 1000 (≈ 1580 µM) | 250 (≈ 395 µM) | 200 (≈ 316 µM) | 200 (≈ 316 µM) | 1000 (≈ 1580 µM)
O=C(O)c1cn(C2CC2)c2cc(N3CCNCC3)c(F)cc2c1=O [CIPROFLOXACIN] |  | 25 (≈ 75.4 µM) |  |  | 50 (≈ 151 µM) | 50 (≈ 151 µM) | 
COc1ccc(-c2cc(N3CCCC3)n(-c3cccc(Cl)c3)c(=O)c2/N=N/c2c(Cl)cc([N+](=O)[O-])cc2Cl)cc1 | 250 (≈ 417 µM) | 250 (≈ 417 µM) | 1000 (≈ 1670 µM) | 250 (≈ 417 µM) | 200 (≈ 334 µM) | 200 (≈ 334 µM) | 1000 (≈ 1670 µM)
COc1ccc(-c2cc(N3CCCC3)n(-c3cccc(Cl)c3)c(=O)c2/N=N/c2ccc([N+](=O)[O-])cc2Cl)cc1 | 250 (≈ 443 µM) | 250 (≈ 443 µM) | 500 (≈ 886 µM) | 250 (≈ 443 µM) | 200 (≈ 354 µM) | 200 (≈ 354 µM) | 500 (≈ 886 µM)
COc1ccc(-c2cc(=O)n(-c3cccc(Cl)c3)c(N3CCCC3)c2/N=N/c2cccc(C)c2)cc1 | 250 (≈ 501 µM) | 250 (≈ 501 µM) | 500 (≈ 1000 µM) | 500 (≈ 1000 µM) | 200 (≈ 401 µM) | 250 (≈ 501 µM) | 500 (≈ 1000 µM)
COc1ccc(-c2cc(=O)n(-c3cccc(Cl)c3)c(N3CCCC3)c2/N=N/c2ccccc2[N+](=O)[O-])cc1 | 200 (≈ 377 µM) | 200 (≈ 377 µM) | 500 (≈ 943 µM) | 250 (≈ 472 µM) | 100 (≈ 189 µM) | 100 (≈ 189 µM) | 250 (≈ 472 µM)
COc1ccc(-c2cc(Cl)n(-c3cccc(Cl)c3)c(=O)c2)cc1 | 100 (≈ 289 µM) | 100 (≈ 289 µM) | 500 (≈ 1440 µM) | 500 (≈ 1440 µM) | 200 (≈ 578 µM) | 200 (≈ 578 µM) | 500 (≈ 1440 µM)
CC1(C)S[C@@H]2[C@H](NC(=O)[C@H](N)c3ccccc3)C(=O)N2[C@H]1C(=O)O [AMPICILLIN] | 100 (≈ 286 µM) | 100 (≈ 286 µM) |  |  | 100 (≈ 286 µM) | 250 (≈ 715 µM) | 
